Article PMC9455918, “Quinolizidines as Novel SARS-CoV-2 Entry Inhibitors” (International Journal of Molecular Sciences, 2022)
Like-named read-outs stand apart in the source and are kept apart here.

How the values were obtained:
[1] = system: PA/Puerto Rico/8/1934 Influenza A Virus (PR8); conditions: cited from earlier work
in vitro = type: cell-based; conditions: human; concentration that reduced viability of 293T-ACE2 cells by 50%; 3 days
Protocol: The CellTiter-Glo® Luminescent Cell Viability Assay (Promega, Cat. # G7570 ) was used to determine the cytotoxicity of the aloperine derivatives. 293T-ACE2 cells were cultured in the presence of various concentrations of the compounds for 3 days. The cytotoxicity of the compounds was determined by following the protocol provided by the manufacturer. The 50% cytotoxic concentration (CC50) was defined as the concentration that caused a 50% reduction in cell viability.

HIV-1NL4-3-nanoluc-sec [2] = conditions: previously described; ref [19],[20],[21],[22]; cited from earlier work
[3] = system: D614G spike-pseudotyped virus in 293T-ACE2 cells; type: cell-based; conditions: 5 µM, 2 h infection with D614G spike-pseudotyped virus
HIV-1NL4-3-nanoluc-sec [4] = type: cell-based; conditions: new compound 9, no reference given; Inac = CC50/IC50 ratio < 5
[5] = system: PA/Puerto Rico/8/1934 Influenza A Virus (PR8); assay: microbe, parasite or virus in culture; type: cell-based; conditions: new compound 9, no reference given
[6] = system: Delta spike-pseudotyped virus; assay: microbe, parasite or virus in culture; type: cell-based; conditions: 293T-ACE2 cells
[7] = system: Omicron BA.4/BA.5 spike-pseudotyped virus; assay: microbe, parasite or virus in culture; type: cell-based; conditions: 293T-ACE2 cells
[8] = system: Omicron BA.2 spike-pseudotyped virus; assay: microbe, parasite or virus in culture; type: cell-based; conditions: 293T-ACE2 cells
cathepsin B = target: T1, cathepsin B (Homo sapiens, UniProt P07858); assay: Cathepsin B inhibitor assay kit (BPS bioscience); type: biochemical; conditions: for Inhibitory activity against cathepsin B: tested at 20 µM, duplicated experiment
T1 construct: purchased BPS bioscience 79590

cathepsin L = target: T2, cathepsin L (Homo sapiens, UniProt P07711); assay: Cathepsin L inhibitor assay kit (BPS bioscience); type: biochemical; conditions: tested at 20 µM, duplicated experiment
T2 construct: purchased BPS bioscience
T2 sequence (P07711 114-333): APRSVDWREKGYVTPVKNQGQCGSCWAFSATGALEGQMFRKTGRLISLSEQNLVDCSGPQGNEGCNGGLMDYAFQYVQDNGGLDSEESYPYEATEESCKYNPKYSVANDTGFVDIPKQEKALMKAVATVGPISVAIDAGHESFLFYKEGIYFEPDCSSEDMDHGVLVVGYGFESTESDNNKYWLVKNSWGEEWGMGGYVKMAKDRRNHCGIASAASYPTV

[9] = system: murine leukemia virus envelope (MLV-env) pseudotyped virus; assay: microbe, parasite or virus in culture; type: cell-based; conditions: spike protein replaced with MLV-env, marked ** in Table 1
[10] = Severe acute respiratory syndrome coronavirus 2

SMILES	IC50 [1]	CC50 (in vitro)	IC50 (HIV-1NL4-3-nanoluc-sec [2])	also measured
O=C(NCCCCCCN1CCCC2CC3CC(CN4CCCCC34)C21)c1c(F)cc(Br)cc1F (centres unmarked) [Compound 1]	0.091 µM	> 20 µM	> 20000 nM	–
COc1ccc(C(=O)NCCCCN2CCCC3=CC4CC(CN5CCCCC45)C32)cc1 (centres unmarked) [Compound 6]	> 20 µM	> 20 µM	11400 nM	–
CC(C)(C)c1ccc(C(=O)NCCCCCCN2CCCC3=CC4CC(CN5CCCCC45)C32)cc1 (centres unmarked) [Compound 7]	0.83 µM	> 20 µM	800 nM	–
CCN(CC)CCCC(C)Nc1ccnc2cc(Cl)ccc12 (centres unmarked) [Chloroquine diphosphate, reference compound]	–	–	–	Spike protein (virus) puncta in 293T-ACE2 cells under confocal microscope [3]: no accumulation of viral puncta
Fc1ccc(CNCCCCN2CCCC3=CC4CC(CN5CCCCC45)C32)cc1 (centres unmarked) [Compound 9]	–	> 10 µM	–	IC50, HIV-1NL4-3-nanoluc-sec (HIV-1NL4-3-nanoluc-sec [4]): Inac ^8; IC50 [5]: 4.8 ± 1.4 µM
O=C(NCCN1CCCC2=CC3CC(CN4CCCCC34)C21)c1ccccc1F (centres unmarked) [Compound 2]	5.5 µM	–	> 25000 nM	–
CCOC(=O)[C@H]1O[C@@H]1C(=O)N[C@@H](CC(C)C)C(=O)NCCC(C)C [Compound E64D, E64D, reference compound]	–	–	–	IC50 [6]: 450 ± 82 nM; IC50 [7]: 340 ± 81 nM; IC50 [8]: 370 ± 66 nM
C1=C2CCCN(CCCCCNCc3ccccc3)C2C2CC1C1CCCCN1C2 (centres unmarked) [Compound 4]	> 40 µM	> 20 µM	840 nM	–
C1=C2CCCN[C@H]2[C@@H]2C[C@H]1[C@H]1CCCCN1C2 [Aloperine, aloperine, reference compound]	14.5 µM	> 20 µM	1750 nM	Inhibitory activity against cathepsin B (cathepsin B): inactive; Inhibitory activity against cathepsin L (cathepsin L): inactive
O=C(Cc1ccc(S(=O)(=O)C(F)(F)F)cc1)NCCCCN1CCCC2=CC3CC(CN4CCCCC34)C21 (centres unmarked) [Compound 3]	> 20 µM	> 20 µM	120 nM	IC50, PA/Puerto Rico/8/1934 Influenza A Virus (PR8) [1]: without anti-influenza virus activity
C1=C2CCCN(CCCCNCc3ccccc3)C2C2CC1C1CCCCN1C2 (centres unmarked) [Compound 5]	> 40 µM	> 20 µM	960 nM	IC50, PA/Puerto Rico/8/1934 Influenza A Virus (PR8) [1]: ineffective; IC50 [6, 10]: 580 ± 150 nM; Inhibitory activity against cathepsin B (cathepsin B): totally inactive; Inhibitory activity against cathepsin B (cathepsin B; listed as compound 5): did not inhibit; IC50 [7, 10]: 860 ± 250 nM; Spike protein (virus) puncta in 293T-ACE2 cells under confocal microscope [3]: observed as puncta; IC50 ([9]; Murine leukemia virus, read-out: Antiviral activity (IC50) against MLV-env pseudotyped virus): > 20 µM; Antiviral activity (IC50) against MLV-env pseudotyped virus [9]: inactive; Inhibitory activity against cathepsin L (cathepsin L): totally inactive; Inhibitory activity against cathepsin L (cathepsin L; listed as compound 5): did not inhibit; IC50 [8, 10]: 830 ± 210 nM
CC(C)C[C@H](NC(=O)[C@H]1O[C@@H]1C(=O)O)C(=O)NCCCCN=C(N)N [Compound E64, E64, reference compound]	–	–	–	Inhibition of enzyme activity (cathepsin B) (cathepsin B; at 0.1 µM): more than 95%
O=C(NCCCCCCCC(=O)N1CCCC2=CC3CC(CN4CCCCC34)C21)c1ccc(OC(F)(F)F)cc1 (centres unmarked) [Compound 8]	> 28.5 µM	> 20 µM	> 20000 nM	IC50, PA/Puerto Rico/8/1934 Influenza A Virus (PR8) [1]: inactive; IC50, HIV-1NL4-3-nanoluc-sec (HIV-1NL4-3-nanoluc-sec [2]): inactive
